From US8247380B2, “Alpha 1-acid glycoprotein, alpha 2-HS glycoprotein, alpha 1-antitrypsin, and fragments thereof induce apoptosis in cancer cell lines” (Ambryx Biotechnology, D.C., priority 1997, dated 2012)
Entries after “also recorded” stand apart in the source; their conditions may differ.

Tests used:
[1] = test system: tumor cell line P388D1 (leukemia); test: Effect of fetal fetuin on leukemia-bearing mice; type: in vivo, DBA/2 female mice
Description: Forty DBA/2 female mice (17-20 grams; Simonsen Laboratories, Inc., Gilroy, Calif.) kept on a standard diet and water ad libitum were inoculated with tumor cell line P388D1 (ATCC cell line number CCL46). The mice were randomly segregated into groups of ten (10). Zinc-charged fetal fetuin (10 mg/ml) were intraperitoneally injected into group I at 0.002 ml/mouse, group II at 0.02 ml/mouse and group III at 0.2 ml/mouse. Group IV was the control group, which was injected with 0.5 ml of saline solution. The injections were continued for 10 days. Mortalities were recorded for 60 days. The results were expressed as the percentage increase in life span (ILS): […]

[2] = test system: HT-29 (human colon adenocarcinoma); test: Apoptosis assay, HT-29 cells; details: for apoptotic activity, panel of cell lines (in words): peptide fragment: 6 hours
Description: Prostate cancer cell line LNCAP was routinely used for the isolation of Apogen P-1 and Apogen P-2, whereas leukemia cell line HL-60 was used for the isolation of Apogen L. The methods of assays were as follows: LNCAP or HL-60 (1,000 cells) was seeded in 10 microliters RPMI containing 15% or 20% Fetal bovine serum, penicillin and streptomycin at 37 degrees, 5% CO2 in Microtray plates (25 μl wells, Robbins Scientific Corp.). The tested sample (10 μl) was added 3-4 hours after cells were seeded. After incubation of the tested sample with cells for 15 hours, two microliters of Hoechst dye (0.03 ng/ml in PBS) was added. Two hours later, cells that were stained with Hoechst dye were examined under fluorescence microscope. […] The percentage of apoptotic cells was calculated by the following equation:
The DNA condensation, DNA fragmentation and peripheral crescents of the nuclei are characteristics of a cell under apoptosis.

cancer cell lines = test: Apoptosis assay, cancer cells (cell line not given); type: cell-based; details: cancer cells
[3] = test system: Calu-1 (human lung carcinoma); test: Apoptosis assay, Calu-1 cells; type: cell-based; details: for apoptotic activity, panel of cell lines (in words): peptide fragment: 6 hours
[4] = test system: LNCaP (prostate cancer) cells; test: Cell death (apoptosis) assay, LNCaP cells; type: cell-based, human; details: for induced apoptosis: 4 hours; for apoptotic activity relative to fetuin prepared by other methods, later conservative estimate: conservatively estimated
Description: […] The free Zinc Acetate and Barium Acetate were removed by repetitive concentration. Fetuin was tested in LNCaP and HL-60 cells. […] Fetuin (in 10 μl PBS) at concentration of 100 ng/ml was added 3-4 hours after the cells were seeded.

[5] = test system: Hs578 Bst (human normal breast); test: Apoptosis assay, Hs578 Bst cells; type: cell-based; details: peptide fragment: 6 hours
[6] = test system: CCD25 Lu (human normal lung); test: Apoptosis assay, CCD25 Lu cells; type: cell-based; details: peptide fragment: 6 hours
HL-60 (leukemia) cells = test: Cell death (apoptosis) assay, HL-60 cells; type: cell-based, human; details: for apoptotic activity, panel of cell lines (in words): peptide fragment: 6 hours
Description: Fetuin purified from fetal bovine serum by the procedure described above was dissolved in phosphate buffer saline (PBS). The free Zinc Acetate and Barium Acetate were removed by repetitive concentration. Fetuin was tested in LNCaP and HL-60 cells. […] Fetuin (in 10 μl PBS) at concentration of 100 ng/ml was added 3-4 hours after the cells were seeded.

[7] = test system: CCD-18 Co (human normal colon fibroblast); test: Apoptosis assay, CCD-18 Co cells; type: cell-based; details: for apoptotic activity, panel of cell lines (in words): peptide fragment: 6 hours
Source text: Zinc charged alpha 1-acid glycoprotein has no effect on CCD 18Co cells (human normal colon fibroblast).

[8] = test system: p3HR-1 (human Burkitt lymphoma); test: Apoptosis assay, p3HR-1 cells; type: cell-based; details: peptide fragment: 6 hours
Hep G2 (Human hepatoma) = test: Apoptosis assay, Hep G2 cells
[9] = test system: CCD 39 Lu (normal lung fibroblast); test: Apoptosis assay, CCD 39 Lu cells; type: cell-based, human
PC-3 (prostate cancer) = test: Apoptosis assay, PC-3 cells; type: cell-based; details: 50 μg/ml
[10] = test system: MCF-7 (breast cancer) cells; test: Apoptosis assay, MCF-7 cells; type: cell-based
Colo 205 (colon cancer) = test: Apoptosis assay, Colo 205 cells; type: cell-based; details: 50 μg/ml
Description: The tested sample (10 μl) was added 3-4 hours after cells were seeded. After incubation of the tested sample with cells for 15 hours, two microliters of Hoechst dye (0.03 ng/ml in PBS) was added. Two hours later, cells that were stained with Hoechst dye were examined under fluorescence microscope. […] The percentage of apoptotic cells was calculated by the following equation:

[11] = 100 ng/ml in PBS, 15 hours, Hoechst dye

## fetal fetuin: Zinc-charged fetal fetuin (10 mg/ml) injected intraperitoneally into mice
[1]; 100 mg/Kg intraperitoneally for 10 days, untreated 100% dead after 24 days
  mice that survived more than 58 days: 80%
[1]; leukemia-bearing mice treated with fetal fetuin
  increased life span (ILS): 141%

## zinc charged alpha 1-acid glycoprotein: alpha 1-acid glycoprotein from adult human serum, EDTA treated and charged with zinc acetate
[2]; 5 μM, 4 hours
  apoptosis: 100%
  apoptotic activity / morphology (in words): resulted in the condensation and fragmentation of DNA
[2]
  apoptotic activity, panel of cell lines (in words): apoptotic activity was present
Cancer cell lines
  concentration at which apoptotic activity was induced (apoptotic threshold): 0.75 µM
[3]
  apoptotic activity, panel of cell lines (in words): apoptotic activity was present
[4]
  apoptotic activity, panel of cell lines (in words): apoptotic activity was present
[5]
  apoptotic activity, panel of cell lines (in words): no activity was present; also recorded: no effect was seen
[6]
  apoptotic activity, panel of cell lines (in words): no activity was present; also recorded: no effect was seen
HL-60 (leukemia) cells
  apoptotic activity, panel of cell lines (in words): apoptotic activity was present
[7]; 5 μM, six hours
  cell death (in words): did not cause cell death
[7]
  apoptotic activity, panel of cell lines (in words): no activity was present
[8]
  apoptotic activity, panel of cell lines (in words): apoptotic activity was present
Hep G2 (Human hepatoma)
  apoptotic activity, panel of cell lines (in words): apoptotic activity was present
Hep G2 (Human hepatoma); 5 μM, 4 hours
  cell death: 90%

## zinc charged alpha 1-antitrypsin: alpha 1-antitrypsin (Sigma), EDTA treated and charged with zinc acetate
[2]; 5 μM, 4 hours
  apoptotic activity / morphology (in words): caused cell shrinkage and membrane blebbing
[2]
  apoptotic activity, panel of cell lines (in words): induced apoptosis
[3]
  apoptotic activity, panel of cell lines (in words): induced apoptosis
[4]
  apoptotic activity, panel of cell lines (in words): induced apoptosis
[6]
  apoptotic activity, panel of cell lines (in words): no effect was seen
HL-60 (leukemia) cells
  apoptotic activity, panel of cell lines (in words): induced apoptosis
[7]
  apoptotic activity, panel of cell lines (in words): no effect was seen
[8]
  apoptotic activity, panel of cell lines (in words): induced apoptosis
[9]
  apoptotic activity, panel of cell lines (in words): no effect was seen

B1: fetuin: bovine fetuin from fetal bovine serum by the modified Spiro method with zinc acetate (Section 4A) (protein, UniProt P12763 19-359, looked up)
Alpha-2-HS-glycoprotein: IPLDPVAGYKEPACDDPDTEQAALAAVDYINKHLPRGYKHTLNQIDSVKVWPRRPTGEVYDIEIDTLETTCHVLDPTPLANCSVRQQTQHAVEGDCDIHVLKQDGQFSVLFTKCDSSPDSAEDVRKLCPDCPLLAPLNDSRVVHAVEVALATFNAESNGSYLQLVEISRAQFVPLPVSVSVEFAVAATDCIAKEVVDPTKCNLLAEKQYGFCKGSVIQKALGGEDVRVTCTLFQTQPVIPQPQPDGAEAEAPSAVPDAAGPTPSAAGPPVASVVVGPSVVAVPLPLHRAHYDLRHTFSGVASVESSSGEAFHVGKTPIVGQPSIPGGPVRLCPGRIRYFKI
modifications: zinc
[3]; 50 μg/ml
  induction of apoptosis (in words): strongly induced apoptosis
[4]; [11]
  apoptosis, nuclear morphology (in words): showed the characteristics of apoptosis
[4]; 25 μg/ml
  induction of apoptosis (in words): highly induced apoptosis
  induced apoptosis: up to 90%
[4]; 50 μg/ml
  induction of apoptosis (in words): strongly induced apoptosis
[4]; approximately 50 μM
  induced apoptosis: up to 90%
[4]; listed as Fetuin as prepared in Section 4A
  apoptotic activity relative to fetuin prepared by other methods, later conservative estimate: approximately 100 times
[4]; listed as fetuin as prepared in Section 4A
  apoptotic activity relative to fetuin prepared by other methods, later conservative estimate: more than one hundred times greater
[4]; initially estimated
  apoptotic activity relative to fetuin prepared by other methods, initial estimate: more than fifty thousand folds higher; also recorded: more than fifty thousand times higher
HL-60 (leukemia) cells; [11]
  apoptosis, nuclear morphology (in words): showed the characteristics of apoptosis
HL-60 (leukemia) cells; 25 μg/ml
  induction of apoptosis (in words): highly induced apoptosis
HL-60 (leukemia) cells; 50 μg/ml
  induction of apoptosis (in words): strongly induced apoptosis
PC-3 (prostate cancer)
  induction of apoptosis (in words): strongly induced apoptosis
[10]; 25 μg/ml
  induction of apoptosis (in words): highly induced apoptosis
[10]; 50 μg/ml
  induction of apoptosis (in words): strongly induced apoptosis
[9]; 25 μg/ml, 15 hours
  induction of apoptosis (in words): inactive in inducing apoptosis
[9]; 50 μg/ml
  induction of apoptosis (in words): is not affected
Colo 205 (colon cancer)
  induction of apoptosis (in words): strongly induced apoptosis

B2: zinc charged alpha 2-HS glycoprotein: alpha 2-HS glycoprotein (Sigma), EDTA treated and charged with zinc acetate (protein, UniProt P02765 19-300; P02765 341-367, looked up)
Alpha-2-HS-glycoprotein chain … 1: APHGPGLIYRQPNCDDPETEEAALVAIDYINQNLPWGYKHTLNQIDEVKVWPQQPSGELFEIEIDTLETTCHVLDPTPVARCSVRQLKEHAVEGDCDFQLLKLDGKFSVVYAKCDSSPDSAEDVRKVCQDCPLLAPLNDTRVVHAAKAALAAFNAQNNGSNFQLEEISRAQLVPLPPSTYVEFTVSGTDCVAKEATEAAKCNLLAEKQYGFCKATLSEKLGGAEVAVTCMVFQTQPVSSQPQPEGANEAVPTPVVDPDAPPSPPLGAPGLPPAGSPPDSHVL
Alpha-2-HS-glycoprotein chain … 2: TVVQPSVGAAAGPVVPPCPGRIRHFKV
modifications: zinc charged
notes: alpha 2-HS glycoprotein (Sigma), EDTA treated and charged with zinc acetate
[2]; 5 μM, 4 hours
  apoptotic activity / morphology (in words): caused cell shrinkage and membrane blebbing
[2]
  apoptotic activity, panel of cell lines (in words): induced apoptosis
[3]
  apoptotic activity, panel of cell lines (in words): induced apoptosis
[4]
  apoptotic activity, panel of cell lines (in words): induced apoptosis
HL-60 (leukemia) cells
  apoptotic activity, panel of cell lines (in words): induced apoptosis
[8]
  apoptotic activity, panel of cell lines (in words): induced apoptosis
Hep G2 (Human hepatoma)
  apoptotic activity, panel of cell lines (in words): induced apoptosis
